In patent US8415307B1, “Antibiotic compositions for the treatment of gram negative infections” (priority 2010, dated 2013):

Columns and labels:
[1] = test system: A. baumannii 1570; assay: MIC against the primary screening panel (broth microdilution); assay type: cell-based; parameters: key: A: a MIC value measurement that is the same as that observed for polymyxin B; a MIC value measured that is lower than the comparable value observed for polymxin B; a MIC value measured that is higher than the comparable value observed for polymyxin B; details: class relative to polymyxin B
Description: (§1) Antibacterial potency can be assessed by broth microdilution according to CLSI guidelines, plates can be incubated at 37° C., and aeration (rotation at 200 rpm) can be employed. In some assays, surfactant (Survanta, Abbott Laboratories) can be added to give a final concentration of 1, 10 and 40% in caMHB. Native polymyxin A, polymyxin B and the comparator compound of Formula II (polymyxin B decapeptide with an o-chlorophenyl urea tail) were included for comparison.

[2] = test system: K. pneumoniae 1800 (PMX-resistant); assay: as above; assay type: cell-based; parameters: key: A: a MIC value measurement that is the same as that observed for polymyxin B; a MIC value measured that is lower than the comparable value observed for polymxin B; a MIC value measured that is higher than the comparable value observed for polymyxin B; details: class relative to polymyxin B
Description: as §1

[3] = test system: K. pneumoniae 933; assay: as above; assay type: cell-based; parameters: key: A: a MIC value measurement that is the same as that observed for polymyxin B; a MIC value measured that is lower than the comparable value observed for polymxin B; a MIC value measured that is higher than the comparable value observed for polymyxin B; details: class relative to polymyxin B
Description: as §1

[4] = test system: A. baumannii; assay: MIC50-90 against small panels (n = 35); assay type: cell-based; parameters: key: A: a MIC value measurement that is the same as that observed for polymyxin B; a MIC value measured that is lower than the comparable value observed for polymxin B; a MIC value measured that is higher than the comparable value observed for polymyxin B; details: small panel n = 35; class relative to polymyxin B
Excerpt: (§2) MIC's refer to the concentration of each antimicrobial agent required to inhibit the growth of a bacterial isolate, as well as the corresponding concentrations required to inhibit 50% and 90% of each group of microorganisms tested [MIC50 and MIC90, respectively, consistent with definitions in the “Instructions to Authors” for Antimicrobial Agents and Chemotherapy (Antimicrobial Agents and Chemotherapy, January 2010, p. 1-23, Vol. 54, No. 1, incorporated herein by reference)]. When only up to nine isolates of a species are tested, MIC's are reported as the MIC range of each antimicrobial agent tested. MIC values provided as numerical ranges for testing of a single bacterial strain indicate the range of MIC values obtained in repeated tests of the indicated bacteria strain.
as §1

[5] = test system: E. coli; assay: MIC50-90 against small panels (n = 35); assay type: cell-based; parameters: key: A: a MIC value measurement that is the same as that observed for polymyxin B; a MIC value measured that is lower than the comparable value observed for polymxin B; a MIC value measured that is higher than the comparable value observed for polymyxin B; details: small panel n = 35; class relative to polymyxin B
Excerpt: as §2, §1

[6] = test system: K. pneumoniae; assay: MIC50-90 against small panels (n = 35); assay type: cell-based; parameters: key: A: a MIC value measurement that is the same as that observed for polymyxin B; a MIC value measured that is lower than the comparable value observed for polymxin B; a MIC value measured that is higher than the comparable value observed for polymyxin B; details: small panel n = 35; class relative to polymyxin B
Excerpt: as §2, §1

[7] = test system: P. aeruginosa; assay: MIC50-90 against small panels (n = 35); assay type: cell-based; parameters: key: A: a MIC value measurement that is the same as that observed for polymyxin B; a MIC value measured that is lower than the comparable value observed for polymxin B; a MIC value measured that is higher than the comparable value observed for polymyxin B; details: small panel n = 35; class relative to polymyxin B
Excerpt: as §2, §1

[8] = test system: P. aeru; assay: MIC50 and MIC90, panel of Gram negative bacterial strains (CLSI broth microdilution); assay type: cell-based, P. Aeruginosa; parameters: key to P. aeru MIC50 / P. aeru MIC90: A: a measured MIC value equal to that of polymyxin B; a measured MIC value less than the corresponding MIC value measured for polymyxin B; a measured MIC value greater than the corresponding MIC value measured for polymyxin B
Description: (§3) The potency and spectrum of Compound 5 was studied using a panel of Gram negative bacterial strains.
(§4) MIC testing can be performed according to Clinical and Laboratory Standards Institute (CLSI) M7-A7 (2006) broth microdilution methods. Unless otherwise indicated, MIC values are provided in units of micrograms per milliliter.
(§5) One day prior to testing, individual colonies were isolated by streaking onto rich, non-selective Tryptic Soy agar with 5% lysed sheeps blood (TSAB) with incubation at 35-37° C. for 18-24 hours.
(§6) Cultures were prepared by touching 3-5 colonies into 3 mL of cation-adjusted Mueller Hinton Broth (caMHB) in a 14-mL tube (caMHB was prepared and sterilized according to manufacturer's specifications).
(§7) OD600 of growing cultures was measured and adjusted to approximately 10^5 colony forming units per mL (CFU/mL) in caMHB for MIC inoculation (approximately OD600 0.001).
(§8) Diluted cultures were used to inoculate 50 μL per well in broth microdilution assays (final volume 100 μl per well; compounds were prepared in two-fold dilutions).
(§9) Plates were incubated 16-20 hours at 37° C., with shaking at 200 rpm.
(§10) OD600 was determined for all wells. Growth was defined as OD600>0.1. MICs were defined as the lowest concentration producing no visible turbidity (OD600<0.1).

[9] = test system: E. coli; assay: as above; assay type: cell-based; parameters: key to E. coli MIC50 / E. coli MIC90: A: a measured MIC value equal to that of polymyxin B; a measured MIC value less than the corresponding MIC value measured for polymyxin B; a measured MIC value greater than the corresponding MIC value measured for polymyxin B
Description: as §3, §4, §5, §6, §7, §8, §9, §10

[10] = test system: K. pneu; assay: as above; assay type: cell-based, K. pneumonia; parameters: key to K. pneu MIC50 / K. pneu MIC90: A: a measured MIC value equal to that of polymyxin B; a measured MIC value less than the corresponding MIC value measured for polymyxin B; a measured MIC value greater than the corresponding MIC value measured for polymyxin B
Description: as §3, §4, §5, §6, §7, §8, §9, §10

[11] = test system: A. baum; assay: as above; assay type: cell-based, A. baumanni; parameters: key to A. baum MIC50 / A. baum MIC90: A: a measured MIC value equal to that of polymyxin B; a measured MIC value less than the corresponding MIC value measured for polymyxin B; a measured MIC value greater than the corresponding MIC value measured for polymyxin B
Description: as §3, §4, §5, §6, §7, §8, §9, §10

[12] = Acute toxicity testing in rats; assay type: in vivo, Sprague-Dawley rat; details: 1 mg/kg i.v.
Description: One female Sprague-Dawley rat was administered a 1 mg/kg dose of the test Compound 5. Clinical observations were taken immediately following the administration of compound and at 0.5, 1, 2 and 4 hours post-dose.

[13] = class relative to polymyxin B, some strains multi-drug resistant

Structure (SMILES): CC(C)C[C@H]1NC(=O)[C@H](CCN)NC(=O)[C@@H](NC(=O)[C@@H](CCN)NC(=O)[C@@H](NC(=O)[C@H](CCN)NC(=O)[C@H]2C[C@@H]2c2ccccc2)C(C)O)CCNC(=O)[C@H](C(C)O)NC(=O)[C@H](CCN)NC(=O)[C@H](CCN)NC(=O)[C@H](C(C)O)NC1=O (single isomer, unassigned) [Compound 5]
- MIC A. baumannii 1570 [1]: C
- MIC K. pneumoniae 1800 (PMX-resistant) [2]: C
- MIC K. pneumoniae 933 [3]: A
- A. baumannii MIC50 [4]: C
- A. baumannii MIC90 [4]: C
- E. coli MIC50 [5]: C
- E. coli MIC90 [5]: A
- K. pneumoniae MIC50 [6]: C
- K. pneumoniae MIC90 [6]: C
- P. aeruginosa MIC50 [7]: A
- P. aeruginosa MIC90 [7]: C
- activity against P. Aeruginosa isolates [8]: active
- P. aeru MIC50 [8, 13]: A
- P. aeru MIC90 [8, 13]: C
- activity against E. coli isolates [9]: active
- E. coli MIC50 [9, 13]: C
- E. coli MIC90 [9, 13]: A
- activity against K. pneumonia isolates [10]: active
- K. pneu MIC50 [10, 13]: C
- K. pneu MIC90 [10, 13]: C
- activity against A. baumanni isolates [11]: active
- A. baum MIC50 [11, 13]: C
- A. baum MIC90 [11, 13]: C
- Acute (anaphylactoid) observations ([12]; 1 female Sprague-Dawley rat): anaphylactoid response was observed
- Clinical signs by 0.5 hours ([12]; female Sprague-Dawley rat): these signs diminished, but the rat remained hypoactive
- Clinical signs by 1 hour ([12]; female Sprague-Dawley rat): no clinical signs and appeared normal
- Clinical signs immediately following the dose ([12]; female Sprague-Dawley rat): flushed ears, abnormal gait, hypoactivity and squinty eyes
